{"source": "patent US11045519B2", "about": "“Arginine-rich polypeptide compositions and methods of using same” (UNM Rainforest Innovations, priority 2017, dated 2021)", "key": {"[1]": {"system": "HPV16 PsVs", "assay": "Internalization of cell-bound HPV16 PsV into HaCaT cells (L1 immunoblot)", "type": "cell-based", "conditions": "HPV-bound HaCaT cells incubated 4 h", "description": "FIG. 8. PolyR reduces the internalization of cell membrane-bound HPV16 PsV. HaCaT cells were incubated with HPV16 PsVs for one hour at 4° C. Unbound virus was removed from the cells by incubation with 0.25% trypsin/5 mM EDTA for 15 minutes at 37° C. Cells were pelleted and washed several times with CM (to neutralize pH) and with ice-cold PBS before adding ice-cold 0.1 M sodium acetate buffer (pH 4.5) containing 0.5 M NaCl. After a two-minute incubation on ice, cells were washed three times with PBS and lysed with RIPA [50 mM Tris (pH 7.5), 0.1% SDS, 1% sodium deoxycholate, 150 mM NaCl, 1 mM EDTA, 1% Triton X-100, 1 mM sodium vanadate, 1 mM PMSF, 10 ng/ml leupeptin, 10 ng/ml aprotinin] buffer. Immuno-blotting was performed, and the L1 protein was detected using a HPV16 L1-specific mAb (Camvir-1, sc-47699, Santa Cruz Biotechnology, Inc., Dallas, Tex.).\nTo investigate the effect of polyR on the penetration of cell-bound virus into host cells, HPV-bound cells were incubated for four hours in the absence or presence of polyR. […] Immuno-blotting was performed, and the L1 protein was detected using a HPV16 L1 specific mAb (Camvir-1; Santa Cruz Biotechnology, Inc., Dallas, Tex.). As HPV16 L1 is proteolytically processed during cell entry, two forms of L1 (full-length 55 kDa and the 25 kDa processed form) were detected. […]"}, "[2]": {"system": "HPV16 PsVs", "assay": "Direct pre-incubation of HPV16 PsVs with peptide, dilution below IC50, then infection of HaCaT cells", "type": "cell-based", "conditions": "0.3 μM, 1 h 37° C., diluted 1500-fold, HaCaT cells 24 h", "description": "FIG. 3. […] HPV16 PsVs were incubated with 0.3 μM polyR for one hour at 37° C. The virus-polyR mixture was diluted with CM to reduce the polyR concentration below the IC50 value prior to incubation with HaCaT cells for 24 hours (HPV16-polyR). The control included untreated HPV16 PsVs (HPV16) added to HaCaT cells. Infection was measured after 24-hour incubation.\nFIG. 15. Direct interaction of PrS to HPV16 PsVs. HPV16 PsVs were incubated with 1 μM PrS or HA:PrS complex for one hour at 37° C. Virus-PrS/or HA:PrS mixture was diluted with CM in order to reduce the PrS concentration below the IC50 value, and incubated with HaCaT cells for 24 hours. The control included untreated HPV16 PsVs. Infection was measured after 24 hours incubation as described in FIG. 12.\nTypically, direct interaction of cationic inhibitors with the viral capsids of non-enveloped viruses (including HPV) is sufficient for antiviral activity. To determine whether polyR inhibited HPV16 infectivity by direct interaction with viral capsids, HPV16 PsVs were incubated with […] for one hour at 37° C. The virus-polyR mixture was diluted 1500-fold to reduce the polyR concentration below the IC50 value, then incubated with HaCaT cells. The control included cells exposed to HPV PsVs that were not treated with polyR. […]"}}}
{"substance": "poly-L-arginine [polyR]", "values": [{"measurement": "internalized L1 forms (55 kDa full-length, 25 kDa processed)", "setting": "[1]", "value": "decreased levels of 55 kDa L1 protein and increased amounts of the 25 kDa proteolytic processed L1 form"}, {"measurement": "virus internalization rate (sum of IDVs of 55 kDa and 25 kDa L1 bands)", "setting": "[1]", "value": "had no effect on the virus internalization rate"}, {"measurement": "effect of pre-incubation of HPV16 PsVs on infection", "setting": "[2]", "value": "did not inhibit infection to a statistically significant degree"}]}
